Values after ≈ are worked out from the molar mass of the structure shown. Like-named read-outs stand apart in the source and are kept apart here.
What was measured:
[1] = test system: Mycobacterium avium 330/88; assay: Antimycobacterial MIC micromethod; assay type: cell-based
[2] = test system: Staphylococcus aureus CCM 4516/08; assay: Antibacterial microdilution broth method; assay type: cell-based; details: read-out: MIC/IC90 S. aureus CCM 4516/08
Protocol: (§1) The in vitro antibacterial activity was assayed against eight Gram-positive and Gram-negative strains: Staphylococcus aureus CCM 4516/08, methicillin-resistant Staphylococcus aureus H 5996/08 (MRSA), Staphylococcus epidermidis H 6966/08, Enterococcus sp. J 14365/08; Escherichia coli CCM 4517, Klebsiella pneumoniae D 11750/08, ESBL-positive Klebsiella pneumoniae J 14368/08, and Pseudomonas aeruginosa CCM 1961.
(§2) The microdilution broth method modified according to standard M07-A07 in Mueller-Hinton broth (HiMedia Laboratories, Mumbai, India) adjusted to pH 7.4 (±0.2) was used. The tested compounds were dissolved in DMSO to the final concentrations ranging from […]. Benzylpenicillin (penicillin G) was used as a comparative drug. Bacterial inoculum in sterile water was prepared to match 0.5 McFarland scale ([…]). The minimum inhibitory concentrations were assayed as 90% (IC90) or higher reduction of growth when compared to the control. The determination of results was performed visually and spectrophotometrically (at 540 nm). The values of MICs were determined after 24 and 48 h of incubation in the darkness at 35 °C (±0.1) in a humid atmosphere.

[3] = test system: methicillin-resistant Staphylococcus aureus H 5996/08 (MRSA); assay: Antibacterial microdilution broth method; assay type: cell-based; details: read-out: MIC/IC90 MRSA H 5996/08
Protocol: as §1, §2

[4] = test system: Enterococcus sp. J 14365/08; assay: Antibacterial microdilution broth method; assay type: cell-based; details: read-out: MIC/IC90 Enterococcus sp. J 14365/08
Protocol: as §1, §2

[5] = test system: Escherichia coli CCM 4517; assay: Antibacterial microdilution broth method; assay type: cell-based; details: read-out: MIC/IC90 E. coli CCM 4517
Protocol: as §1, §2

[6] = test system: Staphylococcus epidermidis H 6966/08; assay: Antibacterial microdilution broth method; assay type: cell-based; details: read-out: MIC/IC90 S. epidermidis H 6966/08
Protocol: as §1, §2

[7] = test system: Mycobacterium tuberculosis 331/88 (H37Rv); assay: Antimycobacterial MIC micromethod, Šula's medium; assay type: cell-based; details: read-out: MIC Mtb. 331/88
[8] = molecular target: T1, mycobacterial isocitrate lyase (ICL1, Rv0467) (Mycobacterium tuberculosis, UniProt P9WKK7); assay: Isocitrate lyase inhibition assay (ICL1); assay type: biochemical, Mycobacterium tuberculosis H37Rv; details: 10 μmol/L; read-out: % ICL inhibition at 10 μmol/L (± standard deviation)
T1 construct: His tag (from pET-28b(+)); made in house; host or cells: E. coli BL21(DE3), pET-28b(+) plasmid
T1 sequence (P9WKK7 1-428): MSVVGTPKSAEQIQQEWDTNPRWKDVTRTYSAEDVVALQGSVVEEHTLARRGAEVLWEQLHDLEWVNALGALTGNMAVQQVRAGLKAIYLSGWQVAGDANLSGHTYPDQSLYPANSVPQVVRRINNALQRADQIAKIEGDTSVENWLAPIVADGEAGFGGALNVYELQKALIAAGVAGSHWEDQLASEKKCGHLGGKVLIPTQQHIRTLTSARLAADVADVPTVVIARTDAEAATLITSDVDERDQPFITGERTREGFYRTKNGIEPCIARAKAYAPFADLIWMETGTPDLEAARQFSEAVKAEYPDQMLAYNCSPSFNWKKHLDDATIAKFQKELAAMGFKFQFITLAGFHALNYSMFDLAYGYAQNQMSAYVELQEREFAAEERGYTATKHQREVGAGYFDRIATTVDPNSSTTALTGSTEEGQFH

[9] = test system: M. kansasii 6509/96 (clinically isolated strain); assay: Antimycobacterial MIC micromethod; assay type: cell-based; details: Mycobacterium kansasii, read-out: MIC M. kansasii 6509/96
[10] = test system: Gram-positive cocci including MRSA; assay: Antibacterial microdilution, summary for Gram-positive cocci; assay type: cell-based; details: Staphylococcus aureus, read-out: MICs against Gram-positive cocci
Protocol: as §1, §2

[11] = test system: Mycobacterium kansasii 235/80; assay: Antimycobacterial MIC micromethod; assay type: cell-based; details: read-out: MIC M. kansasii 235/80
[12] = test system: HepG2 cells; assay: Cytotoxicity evaluation (CellTiter 96 MTS); assay type: cell-based, human; details: 24 h, cytotoxicity; read-out: IC50 HepG2
Protocol: Seven esters and their parent salicylanilides with the most robust antimicrobial activity were tested for cytotoxicity in the human hepatocellular liver carcinoma cell line HepG2 (passages 21–24; ECACC, Salisbury, UK) using a standard colorimetric method measuring a tetrazolium salt reduction (CellTiter(R) 96 AQueous One Solution Assay, Promega G3580, Madison, WI, USA).
The cells were routinely cultured in Minimum Essentials Eagle Medium (Sigma-Aldrich, Darmstadt, Germany) supplemented with 10% foetal bovine serum (PAA; Biotech, Prague, Czech Republic), 1% of L-glutamine solution (Sigma-Aldrich), and non-essential amino acids solution (Sigma-Aldrich) in a humidified atmosphere containing 5% CO2 at 37 °C. For subculturing, the cells were harvested after trypsin/EDTA (Sigma-Aldrich) treatment at 37 °C. The cells treated with the tested substances were used as experimental groups. Untreated HepG2 cells were used as control groups.
The cells were seeded in density 1 × 10^4 cells per well in a 96-well plate with microscopic control. Next day, the cells were treated with each of the tested substances. […] The most of the tested compounds were prepared in incubation concentrations of 0.01–20 µM in triplicates. 4-(Trifluoromethyl)benzoic acid was applied in the concentrations of 10–4,000 µM in triplicates. The following types of controls were included: determination of 100% viability and 0% viability (the cells treated by 10% DMSO), no cell control and vehiculum controls. These checking samples were prepared in triplicates.
The treated cells were incubated together with controls at 37 °C for 24 h in 5% CO2 atmosphere. After this time reagent from the kit CellTiter 96 AQueous One Solution Cell Proliferation Assay was added. The CellTiter 96 assay is based on the reduction of tetrazolium salt MTS [3-(4,5-dimethylthiazol-2-yl)-5-(3-carboxymethoxyphenyl)-2-(4-sulfophenyl)-2H-tetrazolium] to water-soluble formazan dye by metabolically active cells. The reduction of the reagent is attributed to availability of NADH or NADPH. The decline in levels of these metabolically important compounds in the cell causes that the production of formazan is reduced. The tested plate was incubated for 2 h at 37 °C and 5% CO2 and after this time, the absorbance was recorded at 490 nm using a 96-well plate reader (TECAN, Infinite M200, Grödig, Austria).
The results were expressed as inhibitory concentration which is necessary to inhibit cell viability to 50% from the maximal (control) viability (IC50). A standard toxicological parameter IC50 was calculated in each of the tested substances using GraphPad Prism software (version 5.02; GraphPad Software Inc., San Diego, CA, USA).

Row | Structure (SMILES) | MIC ([1]; 330/88, 336 h, 14 d) | MIC ([1]; 330/88, 504 h, 21 d) | MIC ([2]; CCM4516, 24 h) | MIC ([2]; CCM4516, 48 h) | MIC ([3]; 24 h) | MIC ([3]; 48 h) | MIC ([4]; SP.J14365/08, 24 h) | MIC ([4]; SP.J14365/08, 48 h) | MIC ([5]; CCM4517, 24 h) | MIC ([5]; CCM4517, 48 h) | MIC ([6]; H6966/08, 24 h) | MIC ([6]; H6966/08, 48 h) | MIC ([7]; 336 h, 14 d) | MIC ([7]; 504 h, 21 d) | inhibition at 10 µM [8] | MIC ([9]; 168 h, 7 d) | MIC ([9]; 336 h, 14 d) | MIC ([9]; 504 h, 21 d) | MIC ([11]; 235/80, 168 h, 7 d) | MIC ([11]; 235/80, 336 h, 14 d) | also measured
1 | O=C(Oc1cc(Cl)ccc1C(=O)Nc1cccc(Br)c1)c1ccc(C(F)(F)F)cc1 [1h] | 8 µM (≈ 3.99 µg/mL) | 16 µM (≈ 7.98 µg/mL) | 0.98 µM (≈ 0.489 µg/mL) | 0.98 µM (≈ 0.489 µg/mL) | 0.49 µM (≈ 0.244 µg/mL) | 0.98 µM (≈ 0.489 µg/mL) | 31.2 µM (≈ 15.6 µg/mL) | 250 µM (≈ 125 µg/mL) | > 500 µM | > 500 µM | 0.49 µM (≈ 0.244 µg/mL) | 0.98 µM (≈ 0.489 µg/mL) | 4 µM (≈ 1.99 µg/mL) | 8 µM (≈ 3.99 µg/mL) | ≥ 20% | 2 µM (≈ 0.997 µg/mL) | 8 µM (≈ 3.99 µg/mL) | 8 µM (≈ 3.99 µg/mL) | 4 µM (≈ 1.99 µg/mL) | 8 µM (≈ 3.99 µg/mL) | MIC [10]: < 1 µM; MIC ([11]; 235/80, 504 h, 21 d): 8 µM (≈ 3.99 µg/mL)
2 | O=C(Oc1ccc(Cl)cc1C(=O)Nc1ccc(F)cc1)c1ccc(C(F)(F)F)cc1 [1m] | 16 µM (≈ 7 µg/mL) | 32 µM (≈ 14 µg/mL) | 7.81 µM (≈ 3.42 µg/mL) | 7.81 µM (≈ 3.42 µg/mL) | 15.6 µM (≈ 6.84 µg/mL) | 15.6 µM (≈ 6.84 µg/mL) | 500 µM (≈ 219 µg/mL) | > 500 µM | > 500 µM | > 500 µM | 31.2 µM (≈ 13.7 µg/mL) | > 500 µM | 8 µM (≈ 3.5 µg/mL) | 8 µM (≈ 3.5 µg/mL) | ≥ 20% | 8 µM (≈ 3.5 µg/mL) | 16 µM (≈ 7 µg/mL) | 16 µM (≈ 7 µg/mL) | 4 µM (≈ 1.75 µg/mL) | 16 µM (≈ 7 µg/mL) | MIC ([11]; 235/80, 504 h, 21 d): 16 µM (≈ 7 µg/mL)
3 | O=C(Nc1ccc(Cl)c(Cl)c1)c1cc(Cl)ccc1O [SAL-1] |  |  |  |  |  |  |  |  |  |  |  |  |  |  |  |  |  |  |  |  | IC50 [12]: 840 nM
